Reference: ChEMBL document CHEMBL1145401, “Design and synthesis of classical and nonclassical 6-arylthio-2,4-diamino-5-ethylpyrrolo[2,3-d]pyrimidines as antifolates” (J Med Chem, 2007)

Experiments:
[1] = Selectivity ratio of IC50 for rat liver DHFR to IC50 for Mycobacterium avium DHFR
Dihydrofolate reductase [2] = target: T1, Dihydrofolate reductase (Mycobacterium avium, UniProt O30463)
T1 sequence (O30463 whole entry): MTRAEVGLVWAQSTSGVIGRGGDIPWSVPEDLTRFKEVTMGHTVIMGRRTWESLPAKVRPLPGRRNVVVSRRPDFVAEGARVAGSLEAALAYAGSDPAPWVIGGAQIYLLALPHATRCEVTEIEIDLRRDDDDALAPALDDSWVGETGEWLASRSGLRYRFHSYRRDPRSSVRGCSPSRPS
Description: Inhibition of Mycobacterium avium DHFR

[3] = Selectivity ratio of IC50 for human DHFR to IC50 for Escherichia coli DHFR
[4] = target: T2, Bifunctional dihydrofolate reductase-thymidylate synthase (Toxoplasma gondii, UniProt Q07422)
T2 sequence (Q07422 whole entry): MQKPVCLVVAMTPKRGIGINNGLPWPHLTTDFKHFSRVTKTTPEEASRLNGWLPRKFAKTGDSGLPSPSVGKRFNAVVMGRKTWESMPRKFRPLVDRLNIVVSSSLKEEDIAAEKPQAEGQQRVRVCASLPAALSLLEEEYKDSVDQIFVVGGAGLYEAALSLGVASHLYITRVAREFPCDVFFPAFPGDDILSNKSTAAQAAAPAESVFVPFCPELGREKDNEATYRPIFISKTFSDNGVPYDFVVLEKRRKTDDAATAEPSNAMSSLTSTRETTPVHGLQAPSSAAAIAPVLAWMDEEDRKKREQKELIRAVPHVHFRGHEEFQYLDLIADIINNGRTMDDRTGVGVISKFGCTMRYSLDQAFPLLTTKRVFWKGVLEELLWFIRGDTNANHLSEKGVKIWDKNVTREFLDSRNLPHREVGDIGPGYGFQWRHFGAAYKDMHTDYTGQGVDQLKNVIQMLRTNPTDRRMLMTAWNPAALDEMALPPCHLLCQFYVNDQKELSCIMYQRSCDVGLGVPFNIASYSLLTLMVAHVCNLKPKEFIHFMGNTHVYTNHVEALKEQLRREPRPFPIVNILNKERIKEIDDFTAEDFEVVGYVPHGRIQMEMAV
Description: Inhibition of Toxoplasma gondii DHFR

Dihydrofolate reductase [5] = target: T3, Dihydrofolate reductase (Pneumocystis carinii, UniProt P16184)
T3 sequence (P16184 whole entry): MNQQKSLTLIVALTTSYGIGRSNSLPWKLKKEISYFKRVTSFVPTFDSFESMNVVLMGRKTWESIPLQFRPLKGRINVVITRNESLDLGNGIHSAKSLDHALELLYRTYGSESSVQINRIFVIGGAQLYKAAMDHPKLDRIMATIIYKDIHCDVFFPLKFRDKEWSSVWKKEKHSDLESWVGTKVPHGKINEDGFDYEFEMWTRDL
Description: Inhibition of Pneumocystis carinii DHFR

Dihydrofolate reductase [6] = target: T4, Dihydrofolate reductase (Homo sapiens, UniProt P00374)
Dihydrofolate reductase [7] = target: T5, Dihydrofolate reductase (Rattus norvegicus, UniProt Q920D2)
T5 sequence (Q920D2 whole entry): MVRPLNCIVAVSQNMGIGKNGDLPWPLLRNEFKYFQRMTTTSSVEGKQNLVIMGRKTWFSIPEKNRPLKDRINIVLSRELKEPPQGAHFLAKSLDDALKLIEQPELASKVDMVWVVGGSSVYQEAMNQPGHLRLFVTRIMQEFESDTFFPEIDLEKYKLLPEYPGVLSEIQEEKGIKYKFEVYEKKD
Description: Inhibition of rat liver DHFR

[8] = Selectivity ratio of IC50 for rat liver DHFR to IC50 for Pneumocystis carinii DHFR
[9] = Inhibition of Escherichia coli DHFR
Dihydrofolate reductase [10] = target: T4, Dihydrofolate reductase; test: Inhibition of human DHFR relative to control; settings: concentration not given here
CCRF-CEM = test: Cytotoxicity against CCRF-CEM cells; assay type: functional; settings: Homo sapiens
HT-29 = test: Cytotoxicity against HT29 cells; assay type: functional; settings: Homo sapiens
RPMI-8226 = test: Cytotoxicity against RPMI8226 cells; assay type: functional; settings: Homo sapiens
SR = test: Cytotoxicity against SR cells; assay type: functional; settings: Homo sapiens
K562 = test: Cytotoxicity against K562 cells; assay type: functional; settings: Homo sapiens
LOX IMVI = test: Cytotoxicity against LOX IMVI cells; assay type: functional; settings: Homo sapiens
MOLT-4 = test: Cytotoxicity against MOLT4 cells; assay type: functional; settings: Homo sapiens
NCI-H460 = test: Cytotoxicity against NCI-H460 cells; assay type: functional; settings: Homo sapiens
SW-620 = test: Cytotoxicity against SW620 cells; assay type: functional; settings: Homo sapiens
PC-3 = test: Cytotoxicity against PC3 cells; assay type: functional; settings: Homo sapiens
U-251 = test: Cytotoxicity against U251 cells; assay type: functional; settings: Homo sapiens
[11] = target: Dihydrofolate reductase (Pneumocystis carinii) (UniProt P16184); settings: 20 uM
Description: Inhibition of Pneumocystis carinii DHFR at 20 uM

| Structure (SMILES) | Ratio IC50 [1] | IC50 (Dihydrofolate reductase [2]) [µM] | Ratio IC50 [3] | IC50 [4] [µM] | IC50 (Dihydrofolate reductase [5]) [µM] | IC50 (Dihydrofolate reductase [6]) [µM] | IC50 (Dihydrofolate reductase [7]) [µM] | Ratio IC50 [8] | IC50 [9] [µM] | further results |
| --- | --- | --- | --- | --- | --- | --- | --- | --- | --- | --- |
| CCc1c(Sc2ccc(Br)cc2)[nH]c2nc(N)nc(N)c12 | 1.4 | 7.4 | 19.3 | 11.6 | 26.6 | 2.7 | 10.1 | 0.4 | 0.14 |  |
| CCc1c(Sc2ccc3ccccc3c2)[nH]c2nc(N)nc(N)c12 |  | 6.52 |  | 5.12 | 13.9 | 6 | 8.62 |  |  |  |
| CCc1c(Sc2c(Cl)cccc2Cl)[nH]c2nc(N)nc(N)c12 | 0.33 | 12 |  | 3.8 | 20.6 | > 28 | 4 | 0.2 |  | inhibition (Dihydrofolate reductase [10]): 30% |
| CCc1c(Sc2ccc([N+](=O)[O-])cc2)[nH]c2nc(N)nc(N)c12 | 8.6 | 0.37 | 64.4 | 0.32 | 8.68 | 5.8 | 3.2 | 0.4 | 0.09 |  |
| CCc1c(Sc2cccc(OC)c2)[nH]c2nc(N)nc(N)c12 | 40.5 | 0.77 | > 100 | 1.09 | 28.3 | > 32 | 31 | 1.1 | 0.32 | inhibition (Dihydrofolate reductase [10]): 35% |
| COc1ccc(Sc2[nH]c3nc(N)nc(N)c3c2C)cc1 |  | 0.69 |  |  |  |  |  |  |  |  |
| CCc1c(Sc2ccccc2)[nH]c2nc(N)nc(N)c12 |  |  |  | 0.18 |  | 18 |  |  |  |  |
| Cc1nc(N)c2c(C)c(Sc3ccc(C(=O)N[C@@H](CCC(=O)O)C(=O)O)cc3)[nH]c2n1 |  |  |  |  |  |  |  |  |  | GI50 (CCRF-CEM): 0.22 µM; GI50 (HT-29): 0.16 µM; GI50 (RPMI-8226): < 0.01 µM; GI50 (SR): > 0.1 µM; GI50 (K562): 0.027 µM; GI50 (LOX IMVI): 0.17 µM; GI50 (MOLT-4): < 0.01 µM; GI50 (NCI-H460): 0.63 µM; GI50 (SW-620): 0.12 µM; GI50 (PC-3): 0.44 µM; GI50 (U-251): 0.82 µM |
| CCc1c(Sc2ccc(OC)cc2)[nH]c2nc(N)nc(N)c12 |  | 3.07 |  | 4.62 | 53 | 2.9 | 31.8 |  |  |  |
| Cc1c(Sc2ccc(Cl)c(Cl)c2)[nH]c2nc(N)nc(N)c12 | 5.8 | 19 |  | 20 |  |  | 110 | 9.1 |  | inhibition [11]: 14% |
